According to US9695155B2, “Herbicidal substituted pyrimidinyloxy benzene compounds” (E. I. DU PONT DE NEMOURS AND COMPANY, priority 2013, dated 2017):

Tests used:
Assay in all cases: Test F preemergence
Conditions in all cases: 21 days, scale 0 to 100
large (Lg) crabgrass = type: in vivo, Digitaria sanguinalis
Description: (§1) Seeds of plant species selected from bermudagrass (Cynodon dactylon), surinam grass (Brachiaria decumbens), large (Lg) crabgrass (Digitaria sanguinalis), crabgrass, naked (naked crabgrass, Digitaria nuda), foxtail, green (green foxtail, Setaria viridis), johnsongrass (Sorghum halepense), kochia (Kochia scoparia), morningglory (pitted morningglory, Ipomoea lacunosa), nutsedge, purple (purple nutsedge, Cyperus rotundus), ragweed (common ragweed, Ambrosia elatior), mustard, black (black mustard, Brassica nigra), guineagrass (Panicum maximum), dallisgrass (Paspalum dilatatum), barnyardgrass (Echinochloa crus-galli), sandbur (southern sandbur, Cenchrus echinatus), sowthistle (common sowthistle, Sonchus oleraceous), Italian ryegrass (Lolium multiflorum), signalgrass (broadleaf signalgrass, Brachiaria platyphylla), dayflower (Virginia (VA) dayflower, Commelina virginica), bluegrass (annual bluegrass, Poa annua), quackgrass (Elytrigia repens), mallow (common mallow, Malva sylvestris), buckwheat, wild (wild buckwheat, Polygonum convolvulus), leafy spurge (Euphorbia esula), chickweed (common chickweed, Stellaria media), wild poinsettia (Euphorbia heterophylla), and pigweed (Amaranthus retroflexus) were planted into a blend of loam soil and sand and treated preemergence with test chemicals formulated in a non-phytotoxic solvent mixture which included a surfactant.
(§2) Treated plants and controls were maintained in a greenhouse for 21 days, after which time all species were compared to controls and visually evaluated. Plant response ratings, summarized in Table F, are based on a scale of 0 to 100 where 0 is no effect and 100 is complete control. A dash (-) response means no test result.

nutsedge, purple = type: in vivo, Cyperus rotundus
Description: as §1, §2

johnsongrass = type: in vivo, Sorghum halepense
Description: as §1, §2

barnyardgrass = type: in vivo, Echinochloa crus-galli
Description: as §1, §2

surinam grass = type: in vivo, Brachiaria decumbens
Description: as §1, §2

crabgrass, naked = type: in vivo, Digitaria nuda
Description: as §1, §2

## N#Cc1cccc(Oc2ncc(Cl)cn2)c1-n1cc(OC(F)F)cn1 [Compound 97]
Large (Lg) crabgrass; 16 g ai/ha
  Plant response rating, Crabgrass, Large: 98
Large (Lg) crabgrass; 31 g ai/ha
  Plant response rating, Crabgrass, Large: 100
Large (Lg) crabgrass; 62 g ai/ha
  Plant response rating, Crabgrass, Large: 100
Large (Lg) crabgrass; 125 g ai/ha
  Plant response rating, Crabgrass, Large: 100
Large (Lg) crabgrass; 250 g ai/ha
  Plant response rating, Crabgrass, Large: 100
nutsedge, purple; 16 g ai/ha
  Plant response rating, Nutsedge, Purple: 15
nutsedge, purple; 31 g ai/ha
  Plant response rating, Nutsedge, Purple: 35
nutsedge, purple; 62 g ai/ha
  Plant response rating, Nutsedge, Purple: 30
nutsedge, purple; 125 g ai/ha
  Plant response rating, Nutsedge, Purple: 75
nutsedge, purple; 250 g ai/ha
  Plant response rating, Nutsedge, Purple: 90
johnsongrass; 16 g ai/ha
  Plant response rating, Johnsongrass: 0
johnsongrass; 31 g ai/ha
  Plant response rating, Johnsongrass: 65
johnsongrass; 62 g ai/ha
  Plant response rating, Johnsongrass: 95
johnsongrass; 125 g ai/ha
  Plant response rating, Johnsongrass: 100
johnsongrass; 250 g ai/ha
  Plant response rating, Johnsongrass: 100
barnyardgrass; 16 g ai/ha
  Plant response rating, Barnyardgrass: 0
barnyardgrass; 31 g ai/ha
  Plant response rating, Barnyardgrass: 90
barnyardgrass; 62 g ai/ha
  Plant response rating, Barnyardgrass: 95
barnyardgrass; 125 g ai/ha
  Plant response rating, Barnyardgrass: 100
barnyardgrass; 250 g ai/ha
  Plant response rating, Barnyardgrass: 100
Surinam grass; 16 g ai/ha
  Plant response rating, Surinam Grass: 0
Surinam grass; 31 g ai/ha
  Plant response rating, Surinam Grass: 10
Surinam grass; 62 g ai/ha
  Plant response rating, Surinam Grass: 50
Surinam grass; 125 g ai/ha
  Plant response rating, Surinam Grass: 90
Surinam grass; 250 g ai/ha
  Plant response rating, Surinam Grass: 100
crabgrass, naked; 16 g ai/ha
  Plant response rating, Crabgrass, Naked: 100
crabgrass, naked; 31 g ai/ha
  Plant response rating, Crabgrass, Naked: 100
crabgrass, naked; 62 g ai/ha
  Plant response rating, Crabgrass, Naked: 100
crabgrass, naked; 125 g ai/ha
  Plant response rating, Crabgrass, Naked: 100
crabgrass, naked; 250 g ai/ha
  Plant response rating, Crabgrass, Naked: 100

## N#Cc1cccc(Oc2ncc(F)cn2)c1-n1cc(C(F)(F)F)cn1 [Compound 79, 3-[(5-fluoro-2-pyrimidinyl)oxy]-2-[4-(trifluoromethyl)-1H-pyrazol-1-yl]benzonitrile]
Large (Lg) crabgrass; 16 g ai/ha
  Plant response rating, Crabgrass, Large: 98
Large (Lg) crabgrass; 31 g ai/ha
  Plant response rating, Crabgrass, Large: 100
Large (Lg) crabgrass; 62 g ai/ha
  Plant response rating, Crabgrass, Large: 100
Large (Lg) crabgrass; 125 g ai/ha
  Plant response rating, Crabgrass, Large: 100
Large (Lg) crabgrass; 250 g ai/ha
  Plant response rating, Crabgrass, Large: 100
nutsedge, purple; 16 g ai/ha
  Plant response rating, Nutsedge, Purple: 0
nutsedge, purple; 31 g ai/ha
  Plant response rating, Nutsedge, Purple: 10
nutsedge, purple; 62 g ai/ha
  Plant response rating, Nutsedge, Purple: 70
nutsedge, purple; 125 g ai/ha
  Plant response rating, Nutsedge, Purple: 70
nutsedge, purple; 250 g ai/ha
  Plant response rating, Nutsedge, Purple: 85
johnsongrass; 16 g ai/ha
  Plant response rating, Johnsongrass: 65
johnsongrass; 31 g ai/ha
  Plant response rating, Johnsongrass: 100
johnsongrass; 62 g ai/ha
  Plant response rating, Johnsongrass: 100
johnsongrass; 125 g ai/ha
  Plant response rating, Johnsongrass: 100
johnsongrass; 250 g ai/ha
  Plant response rating, Johnsongrass: 100
barnyardgrass; 16 g ai/ha
  Plant response rating, Barnyardgrass: 75
barnyardgrass; 31 g ai/ha
  Plant response rating, Barnyardgrass: 100
barnyardgrass; 62 g ai/ha
  Plant response rating, Barnyardgrass: 100
barnyardgrass; 125 g ai/ha
  Plant response rating, Barnyardgrass: 100
barnyardgrass; 250 g ai/ha
  Plant response rating, Barnyardgrass: 100
Surinam grass; 16 g ai/ha
  Plant response rating, Surinam Grass: 75
Surinam grass; 31 g ai/ha
  Plant response rating, Surinam Grass: 90
Surinam grass; 62 g ai/ha
  Plant response rating, Surinam Grass: 95
Surinam grass; 125 g ai/ha
  Plant response rating, Surinam Grass: 100
Surinam grass; 250 g ai/ha
  Plant response rating, Surinam Grass: 100
crabgrass, naked; 16 g ai/ha
  Plant response rating, Crabgrass, Naked: 100
crabgrass, naked; 31 g ai/ha
  Plant response rating, Crabgrass, Naked: 100
crabgrass, naked; 62 g ai/ha
  Plant response rating, Crabgrass, Naked: 100
crabgrass, naked; 125 g ai/ha
  Plant response rating, Crabgrass, Naked: 100
crabgrass, naked; 250 g ai/ha
  Plant response rating, Crabgrass, Naked: 100
